The values that follow come from US20240018483A1, “A DEVICE AND METHOD FOR VASCULARISING A CELL AGGREGATE” (AGENCY FOR SCIENCE, TECHNOLOGY AND RESEARCH, priority 2020, published 2024).

The test relates to Hep3b monoculture and triculture spheroids. Description: Sorafenib treatment of tumour spheroids in devices with and without vasculature (GFP signal of live cells). Type of test: cell-based. The note with it: 10 μM Sorafenib for 7 days from day 5, vascularised vs non-vascularised, FIG. 9B. The procedure: Next, the effect of Sorafenib treatment on the tumour spheroids and the vasculature was investigated. In this example, Hep3b monoculture and triculture spheroids were seeded in the devices with and without vasculature. At day 5, 10 μM of Sorafenib was used to treat the tumours for 7 days. GFP signal (representing the live cells) was quantified along the time.
In FIG. 9A, representative images from all the conditions are shown at Day 0 (starting of the drug treatment) and Day 5 post-treatment. FIG. 9B is a graph showing the GFP signal over time represented from 3 independent replicates.

The structures appear in SMILES notation.

Turning to `CNC(=O)c1cc(Oc2ccc(NC(=O)Nc3ccc(Cl)c(C(F)(F)F)c3)cc2)ccn1` [Sorafenib], the “viability of spheroids (GFP signal representing the live cells)” value was “viability of the vascularised spheroids is lower compared to the non-vascularised spheroids”.
